Reference: patent publication US20050124594A1, “Method of treatment” (priority 1998, published 2005)

How the values were obtained:
[1] = tested on: choroidal neovascularisation in age-related macular degeneration; details: introduced into the vitreous; cited from earlier work
[2] = tested on: choroidal neovascularisation (CNV); test: Case report: prophylactic triamcinolone to the orbital floor at cataract surgery in a high risk eye; format: in vivo, human
Text: A patient in whom prophylactic treatment was used was a person. There was marked macula degeneration in both eyes. They underwent cataract surgery late in July 1995 and developed neovascularisation of the right macula within three weeks. They also had cataract in the left eye but surgery was deferred for fear of developing the same complication. In the left macula there were greater than 5 drusen, some of them larger than 500 μm, and coarse pigment clumping, all high risk features. The cataract in the left eye continued to advance. By August 1997 it was very dense, reducing the visual acuity to 6/24. In spite of the high risk of neovascularisation, they underwent surgery in October 1997. As a prophylactic measure to reduce the risk of subsequent CNV, they received 40 mg of triamcinolone to the orbital floor beneath the eye at the time of surgery. The visual acuity improved to 6/12. They progressed well until June 1998 when they developed left CNV. By this time the effect of the triamcinolone had worn off.

[3] = tested on: choroidal neovascularisation (CNV); test: Illustrative case: intravitreal steroid treatment for the prevention of neovascularisation in a patient at high risk; format: in vivo, human
Description: This case illustrates how intravitreal steroid treatment might be used to prevent CNV in a high risk eye.
A patient presents with recent loss of vision in their right eye. Retinal haemorrhages and exudation are seen in the right macula. […] This is treated on its merits, but the patient is already legally blind (visual acuity less than 6/60) and likely to remain so.
The patient is otherwise healthy and looks as if they might well live another ten or twenty years.
It is explained to the patient that it has been well shown that the risk of developing neovascularisation in their left eye is roughly 90% over the next five years. Should this occur, the chance of saving reading and driving vision with conventional treatments would be less than 25%. The patient is informed that, since the formation of new blood vessels appears in this disease to be linked to chronic, low grade inflammation inside the eye, we believe that an injection of steroid into the eye may reduce the risk of developing neovascularisation in their left eye. […] Serious side effects of the injection are rare. The patient returns in one week, having considered their options, and elects to receive the treatment.
The patient's left eye is anaesthetised and sterilised with topical medications. An injection into the vitreous of 4 mg of triamcinolone (0.1 mL of a 40 mg/mL solution) is performed. The patient is reviewed at 1 and 6 weeks after the injection, then at 3, 6 and 12 months. […] A second injection of triamcinolone is instilled, with the patients consent, and they are reviewed with the same frequency as after the first injection. Two years after the first injection the patient's visual acuity remains 6/9. Further treatments are deferred and the patient is reviewed every 6 months.

[4] = Clinical observations of side effects of intravitreal triamcinolone; format: in vivo, human
Text: Intravitreal triamcinolone presents a manageable side effect profile. Of the several hundred patients treated through the Sydney Eye Hospital over the last three years, no case of endophthalmitis, retinal detachment or vitreous haemorrhage has been reported. The commonest side effect is a modest elevation of the intraocular pressure of around 5 mmHg. This has been controlled with glaucoma medication where necessary, although if the optic nerve is not compromised and the pressure is less than 25 mmHg it is often reasonable to observe without treatment. The pressure invariably returns to normal after the drug wears off, which is usually after approximately 6 months.

[5] = 12 months after intravitreal injection of 4 mg

Q: For “9-fluoro-11,21-dihydroxy-16,17-[1-(methylethylidine)bis (oxy)]pregna-1,4-diene-3,20-dione [triamcinolone]”, which exudation [1] is on record?
A: control and resorbtion of exudation

Q: And the “resident immune cell activity” value [1]?
A: modulates the resident immune cell activity

Q: And the visual acuity [1]?
A: improved visual acuity

Q: And the “formation of CNV after surgery” value ([2]; 40 mg to the orbital floor October 1997, left CNV developed June 1998)?
A: delayed the formation of CNV after surgery

Q: What about the “visual acuity after cataract surgery” value ([2]; person, left eye, 40 mg to the orbital floor at surgery, acuity 6/24 before surgery) of the same substance?
A: 6/12

Q: And the “complications of the procedure” value [3, 5]?
A: no complications of the procedure have ensued

Q: What about the evidence of neovascularisation [3, 5] of the same substance?
A: without evidence clinically or angiographically of neovascularisation

Q: And the visual acuity ([3]; 12 months after intravitreal injection of 4 mg, baseline 6/9)?
A: 6/9

Q: What about the visual acuity ([3]; two years after the first injection, second injection at 12 months) of the same substance?
A: 6/9

Q: What about the “cataract in the treated eye” value ([4]; follow-up to 18 months) of the same substance?
A: this has not been a problem

Q: What about the “elevation of the intraocular pressure (commonest side effect)” value ([4]; intravitreal) of the same substance?
A: around 5 mmHg

Q: What about the “endophthalmitis, retinal detachment or vitreous haemorrhage” value ([4]; several hundred patients treated intravitreally over three years) of the same substance?
A: no case
